Assay [1] addresses T1, Recombinant STAT3 protein (STAT3 (G127-I722)) (Homo sapiens, UniProt P40763).
T1 construct: Recombinant STAT3 protein (STAT3 (G127-I722))
Put plainly: STAT3 Fluorescence Polarization (FP) Assay. Format: binding. The conditions noted are these: probe 5-FAM-GpYLPQTV-NH2 2 nM, 45-minute incubation. The method in brief:
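Compounds in serial dilution receive a premix of STAT3 (G127-I722, 25 nM) and fluorescent phosphotyrosine peptide 5-FAM-GpYLPQTV-NH2 (2 nM) at pH 7.4. After 45 min at room temperature, FP is measured and IC50 derived by nonlinear regression.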
In general terms: Polarisation of emitted light reports the rotation of a fluorescent probe.

Assay [2] deals with T2, Recombinant STAT6 protein (STAT6 (W123-T658)) (Homo sapiens, UniProt P42226).
T2 construct: Recombinant STAT6 protein (STAT6 (W123-T658))
T2 sequence (P42226 123-658): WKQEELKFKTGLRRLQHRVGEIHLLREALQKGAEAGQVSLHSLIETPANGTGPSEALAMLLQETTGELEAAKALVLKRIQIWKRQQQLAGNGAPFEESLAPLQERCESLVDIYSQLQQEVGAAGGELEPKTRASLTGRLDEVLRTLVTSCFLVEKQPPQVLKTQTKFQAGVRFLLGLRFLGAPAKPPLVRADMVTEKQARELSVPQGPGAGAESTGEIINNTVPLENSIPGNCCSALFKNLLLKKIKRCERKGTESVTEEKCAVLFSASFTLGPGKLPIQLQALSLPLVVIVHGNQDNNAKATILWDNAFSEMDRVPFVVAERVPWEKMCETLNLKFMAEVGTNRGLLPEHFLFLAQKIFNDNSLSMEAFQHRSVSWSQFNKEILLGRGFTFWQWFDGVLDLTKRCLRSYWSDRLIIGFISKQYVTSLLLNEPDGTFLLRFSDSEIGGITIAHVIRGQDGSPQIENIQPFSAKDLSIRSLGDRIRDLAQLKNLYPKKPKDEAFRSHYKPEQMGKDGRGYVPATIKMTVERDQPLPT
The assay is described as follows: STAT6 Fluorescence Polarization (FP) Assay. The conditions noted are these: 45-minute incubation. It is filed as binding. The method in brief:
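Protein-probe mix (250 nM STAT6 W123-T658, 2 nM 5-FAM-pTyr peptide) in 10 mM HEPES pH 7.4, 50 mM NaCl, 1 mM EDTA, 0.05% Tween 20, 2 mM DTT; added to compound dilution series, 1% DMSO final; 45 min RT; FP read; IC50 via nonlinear regression.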

[3] abbreviates: STAT3 (G127-I722) 25 nM, read-out: STAT3 (FP assay IC50 class).
Setting [4] is: STAT6 (W123-T658) 250 nM, probe 5-FAM-Ap[…]-NH2 2 nM, read-out: STAT6 (FP assay IC50 class).

Like-named read-outs stand apart in the source and are kept apart here.

T1 sequence (P40763 127-722): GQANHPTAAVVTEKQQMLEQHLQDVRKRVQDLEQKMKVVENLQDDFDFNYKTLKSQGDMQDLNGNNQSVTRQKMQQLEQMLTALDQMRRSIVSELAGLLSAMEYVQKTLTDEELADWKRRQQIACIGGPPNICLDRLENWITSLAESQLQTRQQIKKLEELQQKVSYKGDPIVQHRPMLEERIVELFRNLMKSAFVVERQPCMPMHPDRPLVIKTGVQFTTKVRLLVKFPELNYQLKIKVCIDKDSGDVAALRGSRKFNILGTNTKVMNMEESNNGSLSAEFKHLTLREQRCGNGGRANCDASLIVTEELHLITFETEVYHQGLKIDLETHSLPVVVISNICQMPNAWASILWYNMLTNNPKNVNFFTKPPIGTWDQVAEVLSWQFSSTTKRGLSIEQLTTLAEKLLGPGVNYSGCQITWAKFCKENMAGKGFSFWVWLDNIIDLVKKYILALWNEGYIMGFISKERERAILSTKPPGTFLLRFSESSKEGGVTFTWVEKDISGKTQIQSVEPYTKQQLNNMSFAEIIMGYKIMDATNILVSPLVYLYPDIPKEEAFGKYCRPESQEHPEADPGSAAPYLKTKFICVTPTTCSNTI

For the compound `O=C(N[C@H]1CCC[C@H]2CC[C@@H](C(=O)N3CC(c4cnccc4N4CC(C(F)F)C4)C3)N2C1=O)c1cc2cc(CP(=O)(O)O)ccc2s1` [Compound 691, ((2-(((3S,6S,9aS)-3-(3-(4-(3-(difluoromethyl)azetidin-1-yl)pyridin-3-yl)azetidine-1-carbonyl)-5-oxooctahydro-1H-pyrrolo[1,2-a]azepin-6-yl)carbamoyl)benzo [b]thiophen-5-yl)methyl) phosphonic acid], the IC50 is less than 100 nM in assay [1] (setting [3]) and 3000 to 30000 nM in assay [2] (setting [4]).

Turning to `C[C@H]1C[C@H]2CC[C@@H](C(=O)N3C[C@@H](C#N)[C@H](c4ccccc4)C3)N2C(=O)[C@@H](NC(=O)c2cc3cc(C(F)(F)P(=O)(O)O)ccc3s2)C1` (single isomer, unassigned) [Compound 782], the IC50 lay in the range of 100 to 1000 nM in assay [1] (setting [3]) and 300 to 3000 nM in assay [2] (setting [4]).

`O=C(N[C@H]1CCC[C@H]2CC[C@@H](C(=O)N3C[C@@H](c4cccnc4)CC34CC4)N2C1=O)c1cc2cc([C@@H](F)P(=O)(O)O)ccc2s1` (single isomer, unassigned) [Compound 917]: the IC50 is 1000 to 10000 nM in assay [1] (setting [3]) and no more than 300 nM in assay [2] (setting [4]).

As to `NC(=O)Cc1cc(-c2ccccc2)ccc1NC(=O)[C@@H]1CCC2CCC[C@H](NC(=O)c3cc4cc(C(F)(F)P(=O)(O)O)ccc4s3)C(=O)N21` (stereo partly drawn) [Compound 1122, ((2-(((35,6S)-3-((3-(2-amino-2-oxoethyl)-[1,1′-biphenyl]-4-yl)carbamoyl)-5-oxooctahydro-1H-pyrrolo[1,2-a]azepin-6-yl)carbamoyl)benzo[b]thiophen-5-yl)difluoromethyl)phosphonic acid], the IC50 in assay [1] (setting [3]) was 100 to 1000 nM; in assay [2] (setting [4]) it was 3000 to 30000 nM.

Consider `O=C(N[C@H]1CCCC[C@H]2CC[C@@H](C(=O)N3CC(c4ccccc4)CC34CC4)N2C1=O)c1ccc2ccc(CP(=O)(O)O)cc2c1` (stereo partly drawn) [Compound 884, ((7-(((3S,6S,10aS)-5-oxo-3-(6-phenyl-4-azaspiro[2.4]heptane-4-carbonyl)decahydropyrrolo[1,2-a]azocin-6-yl)carbamoyl)naphthalen-2-yl)methyl) phosphonic acid], for which the figures for the IC50 in assay [1] (setting [3]) and in assay [2] (setting [4]) were 1000 to 10000 nM and 300 to 3000 nM, respectively.

In the case of `CC1C[C@H]2CC[C@@H](C(=O)N3CC(c4cccnc4)C3)N2C(=O)[C@@H](NC(=O)c2cc3cc(C(F)(F)P(=O)(O)O)ccc3s2)C1` (stereo partly drawn) [Compound 759, (difluoro(2-(((3S,6S,9aR)-8-methyl-5-oxo-3-(3-(pyridin-3-yl)azetidine-1-carbonyl)octahydro-1H-pyrrolo[1,2-a]azepin-6-yl)carbamoyl)benzo [b]thiophen-5-yl)methyl) phosphonic acid], the 50% inhibitory concentration (IC50) in assay [1] (setting [3]) is greater than 10000 nM; in assay [2] (setting [4]) it was 300 to 3000 nM.

Take `O=C(N[C@H]1CCCC[C@H]2CC[C@@H](C(=O)N3C[C@@H](c4cccnc4)CC34CC4)N2C1=O)c1cc2cc(CP(=O)(O)O)ccc2s1` [Compound 244, ((2-(((3S,6S,10aS)-5-ox0-3-((R)-6-(pyridin-3-yl)-4-azaspiro[2.4]heptane-4-carbonyl)decahydropyrrolo[1,2-a]azocin-6-yl)carbamoyl)benzo[b]thiophen-5-yl)methyl)phosphonic acid]: the IC50 in assay [1] (setting [3]) was in the range of 1000 to 10000 nM; in assay [2] (setting [4]), 300 to 3000 nM.

For the compound “(difluoro(2- (((3S,6S,10aS)-5- oxo-3-((1R,5S,6R)- 6-phenyl-3- azabicyclo[3.1.0] hexane-3- carbonyl)decahydro pyrrolo[1,2- a]azocin-6- yl)carbamoyl)benzo [b]thiophen-5- yl)methyl) phosphonic acid [Compound 805]”, the IC50 in assay [1] (setting [3]) lay within 100 to 1000 nM; in assay [2] (STAT6 (W123-T658) 250 nM, probe 5-FAM-ApYKPFQDLI-NH2 2 nM, read-out: STAT6 (FP assay IC50 class)) it was 3000 to 30000 nM.

As to `O=C(N[C@H]1CCC[C@H]2CC[C@@H](C(=O)N3CC(c4cnccc4F)C3)N2C1=O)c1cc2cc([C@@H](F)P(=O)(O)O)ccc2s1` (single isomer, unassigned) [Compound 599], the concentration for half-maximal inhibition (IC50) in assay [1] (setting [3]) is less than 100 nM; in assay [2] (setting [4]), 300 to 3000 nM.

In the case of `O=C(N[C@H]1CCC[C@H]2CC[C@@H](C(=O)NCc3ccc4[nH]cnc4c3)N2C1=O)c1cc2cc(C(F)(F)P(=O)(O)O)ccc2s1` [Compound 1115, ((2-(((3S,6S,9aS)-3-(((1H-benzo[d]imidazol-5-yl)methyl)carbamoyl)-5-oxooctahydro-1H-pyrrolo[1,2-a]azepin-6-yl)carbamoyl)benzo[b]thiophen-5-yl)difluoromethyl)phosphonic acid], the concentration for half-maximal inhibition (IC50) in assay [1] (setting [3]) is less than 100 nM; in assay [2] (setting [4]), 300 to 3000 nM.

For the compound `N#C[C@H]1CN(C(=O)[C@@H]2CC[C@@H]3CCCC[C@H](NC(=O)c4cc5cc(C(F)(F)P(=O)(O)O)ccc5s4)C(=O)N32)C[C@@H]1c1cc[nH]c(=O)c1` (single isomer, unassigned) [Compound 875], the IC50 was 100 to 1000 nM in assay [1] (setting [3]) and no more than 300 nM in assay [2] (setting [4]).

Turning to `O=C(N[C@H]1CCC[C@H]2CC[C@@H](C(=O)N[C@@H]3CC[C@H](O)C3)N2C1=O)c1cc2cc(C(F)P(=O)(O)O)ccc2s1` (stereo partly drawn) [Compound 531, (fluoro(2-(((3S,6S,9aS)-3-(((1R,3S)-3-hydroxycyclopentyl)carbamoyl)-5-oxooctahydro-1H-pyrrolo[1,2-a]azepin-6-yl)carbamoyl)benzo[b]thiophen-5-yl)methyl)phosphonic acid], the IC50 in assay [1] (setting [3]) was 1000 to 10000 nM; in assay [2] (setting [4]), 3000 to 30000 nM.

For the compound `O=C(N[C@H]1CCCC[C@H]2CC[C@@H](C(=O)N3CC(C(=O)N4CCOCC4)C3)N2C1=O)c1cc2cc(C(F)(F)P(=O)(O)O)ccc2s1` [Compound 93, (difluoro(2-(((3S,6S,10aS)-3-(3-(morpholine-4-carbonyl)azetidine-1-carbonyl)-5-oxodecahydropyrrolo [1,2-a]azocin-6-yl)carbamoyl)benzo[b]thiophen-5-yl)methyl) phosphonic acid], the IC50 in assay [1] (STAT3 25 nM, read-out: STAT3 (FP assay IC50)) lay within 100 to 1000 nM; in assay [2] (STAT6 250 nM, probe 5-FAM-Ap[…]-NH2 2 nM, read-out: STAT6 (FP assay IC50)), 3000 to 30000 nM.

Regarding `COc1ccncc1[C@H]1CCN(C(=O)[C@@H]2CC[C@@H]3CCC[C@H](NC(=O)c4cc5cc(C(F)P(=O)(O)O)ccc5s4)C(=O)N32)C1` (stereo partly drawn) [Compound 707, (fluoro(2-(((3S,6S,9aS)-3-((R)-3-(4-methoxypyridin-3-yl)pyrrolidine-1-carbonyl)-5-oxooctahydro-1H-pyrrolo[1,2-a]azepin-6-yl)carbamoyl)benzo [b]thiophen-5-yl)methyl) phosphonic acid], the figures for the half-maximal inhibitory concentration (IC50) in assay [1] (setting [3]) and in assay [2] (setting [4]) were less than 100 nM and 300 to 3000 nM, respectively.

On to `O=C(N[C@H]1CCCC[C@H]2CC[C@@H](C(=O)N3CCC(c4ccncn4)CC3)N2C1=O)c1cc2cc(C(F)P(=O)(O)O)ccc2s1` (stereo partly drawn) [Compound 590, (fluoro(2-(((3S,6S,10aS)-5-oxo-3-(4-(pyrimidin-4-yl)piperidine-1-carbonyl)decahydropyrrolo[1,2-a]azocin-6-yl)carbamoyl)benzo[b]thiophen-5-yl)methyl)phosphonic acid], for which the IC50 fell in the range of 1000 to 10000 nM in assay [1] (setting [3]) and 3000 to 30000 nM in assay [2] (setting [4]).

For the compound `Cc1nnc(C2CN(C(=O)[C@@H]3CC[C@@H]4CCC[C@H](NC(=O)c5cc6cc(C(F)(F)P(=O)(O)O)ccc6s5)C(=O)N43)CCO2)o1` (stereo partly drawn) [Compound 1127, (difluoro(2-(((3S,6S,9aS)-3-(2-(5-methyl-1,3,4-oxadiazol-2-yl)morpholine-4-carbonyl)-5-oxooctahydro-1H-pyrrolo[1,2-a]azepin-6-yl)carbamoyl)benzo[b]thiophen-5-yl)methyl)phosphonic acid], the IC50 in assay [1] (setting [3]) is 100 to 1000 nM; in assay [2] (setting [4]), 300 to 3000 nM.

As for `N#C[C@@H]1[C@@H](c2ccccc2)CN(C(=O)[C@@H]2CC[C@@H]3CCCC[C@H](NC(=O)c4ccc5ccc([C@@H](F)P(=O)(O)O)cc5c4)C(=O)N32)C12CC2` (single isomer, unassigned) [Compound 832], the IC50 in assay [1] (setting [3]) was 1000 to 10000 nM; in assay [2] (setting [4]), no more than 300 nM.

Turning to `C/C1=C/[C@H]2CC[C@@H](C(=O)N3CC(c4ccccc4)CC34CC4)N2C(=O)[C@@H](NC(=O)c2ccc3ccc(CP(=O)(O)O)cc3c2)CC1` (stereo partly drawn) [Compound 885, ((7-(((3S,6S,10aR,Z)-9-methyl-5-oxo-3-(6-phenyl-4-azaspiro[2.4]heptane-4-carbonyl)-1,2,3,5,6,7,8,10a-octahydropyrrolo[1,2-a]azocin-6-yl)carbamoyl)naphthalen-2-yl)methyl) phosphonic acid], the figures for the IC50 in assay [1] (setting [3]) and in assay [2] (setting [4]) were 1000 to 10000 nM and 300 to 3000 nM, respectively.

For orientation: IC50 means the point on the concentration scale where inhibition reaches its midpoint.

The values above are taken from US20250215029A1 (Recludix Pharma, Inc., priority 2022, published 2025).
